Key:
[1] = tested on: STAT-3 transcription factor; test: STAT3 inhibition, luciferase reporter (4xM67 pTATA TK-Luc) in HeLa cells stimulated with γ-Interferon; type: cell-based; conditions: Homo sapiens, γ-Interferon 8 h, luciferase activity, read-out: Anti STAT3 IC50
Protocol: HeLa cells (4×10^4/ml) were transiently transfected with a luciferase reporter plasmid (4×M67 pTATA TK-Luc) driven by artificial promoter containing 4 repeated M67 binding sites in tandem for the STAT-3 transcription factor. The transfections were performed for 24 h using Roti-Fect reagent (Carl Roth, Karlsruhe, Germany) according to the manufacturer's recommendations. After incubation with different concentrations of the extracts for 30 min the transfected cells were stimulated for 8 h with γ-Interferon. Then, the cells were lysed in 25 mM Tris-phosphate pH 7.8, 8 mM MgCl2, 1 mM DTT, 1% Triton X-100, and 7% glycerol. Luciferase activity was measured as described for 5.1 cells.
γ-Interferon induces an average of 5-6 fold induction of the luciferase activity compared to non stimulated cells and this represent the index of transactivation that is represented in our experiment as the maximum levels of γ-Interferon-induced STAT-3 activation (100%). Results below represent the IC50 for each compound in this assay. The IC50 means the concentration of each compound that reduces luciferase activity by 50% and it was calculated by GraphPad software.

DU145 [2] = test: WST-1 proliferation assay, DU145 cells (Example 16); type: cell-based, human
Protocol: (§1) The human prostate cancer cell lines DU145, LNCaP (from the American Type culture Collection, ATCC) and long-term interleukin-6 (IL-6) stimulated LNCaP cells (LNCaP-IL6 cells) (Hobisch, Ramoner et al. 2001) were used. The cells were cultured in RPMI 1640 medium supplemented with 10% FBS and 1% penicillin-streptomycin. All cells were incubated at 37° C. in a humidified atmosphere of […] and 5% CO2.
(§2) WST-1 proliferation assay was performed to study the effects of the test items on the proliferation and viability of cultured prostate cancer cells. LNCaP and DU145 cells were cultured in 96-well plates at the density of 2 000 cells/well in 200 μl of medium. Cells were allowed to set for 24 h. The cells were treated with 0, 2.5, 5 or 10 μM of the specific substance for 24 h and 48 h. Samples were made in triplicate. 20 μl WST-1 solution (Roche Applied Science, Mannheim, Germany) was added per well and incubated at 37° C. for 4 h. The absorbance of each well was measured using a scanning multiwell spectrophotometer, ELISA reader at a wavelength of 450 nm and reference wavelength of 690 nm. The results are presented as percent of untreated control cells or the absorbance value.

LNCaP-IL6 cells = test: WST-1 proliferation assay, LNCaP-IL6 cells; type: cell-based, human
Protocol: as §1, §2

DU145 [3] = test: WST-1 proliferation assay, DU145 cells (Example 17); type: cell-based, human; conditions: 25.0 μM
DU145 [4] = test: as above; type: cell-based, human
Protocol: The human prostate cancer cell line DU145 was used. The cells were cultured in RPMI 1640 medium supplemented with 10% FBS and 1% penicillin-streptomycin. All cells were incubated at 37° C. in a humidified atmosphere of […] and 5% CO2.
WST-1 proliferation assay was performed to study the effects of the test items on the proliferation and viability of cultured prostate cancer cells. DU145 cells were cultured in 96-well plates at the density of 2 000 cells/well in 200 μl of medium. Cells were allowed to set for 24 h and 48 h. The cells were treated with 0.5, 1.0, 2.5, 5.0, 10, and 50 μM of the specific substance for 24 h and 48 h. Samples were made in triplicate. 20 μl WST-1 solution (Roche Applied Science, Mannheim, Germany) was added per well and incubated at 37° C. for 4 h. The absorbance of each well was measured using a scanning multiwell spectrophotometer, ELISA reader at a wavelength of 450 nm and reference wavelength of 690 nm. The results are presented as percent of untreated control cells or the absorbance value.

SMILES | IC50 [1] [nM] | % Proliferation (vs control) 24 h DU145 (DU145 [2]; 2.5 uM) [%] | % Proliferation (vs control) 48 h Du145 (DU145 [2]; 2.5 uM) [%] | % Proliferation (vs control) 24 h DU145 (DU145 [2]; 5 uM) [%] | % Proliferation (vs control) 48 h Du145 (DU145 [2]; 5 uM) [%] | % Proliferation (vs control) 24 h DU145 (DU145 [2]; 10 uM) [%] | % Proliferation (vs control) 48 h Du145 (DU145 [2]; 10 uM) [%] | % Proliferation (vs control) 24 h LNCaP-IL6 (LNCaP-IL6 cells; 2.5 uM) [%] | % Proliferation (vs control) 48 h LNCaP-IL6 (LNCaP-IL6 cells; 2.5 uM) [%] | % Proliferation (vs control) 24 h LNCaP-IL6 (LNCaP-IL6 cells; 5 uM) [%] | % Proliferation (vs control) 48 h LNCaP-IL6 (LNCaP-IL6 cells; 5 uM) [%] | % Proliferation (vs control) 24 h LNCaP-IL6 (LNCaP-IL6 cells; 10 uM) [%] | % Proliferation (vs control) 48 h LNCaP-IL6 (LNCaP-IL6 cells; 10 uM) [%] | Proliferation (vs control) Du145 (%) 24 h (DU145 [3]) [%] | Proliferation (vs control) Du145 (%) 48 h (DU145 [3]) [%] | Proliferation (vs control) Du145 (%) 24 h (DU145 [4]; 0.5 μM) [%] | Proliferation (vs control) Du145 (%) 48 h (DU145 [4]; 0.5 μM) [%] | Proliferation (vs control) Du145 (%) 24 h (DU145 [4]; 1.0 μM) [%] | Proliferation (vs control) Du145 (%) 48 h (DU145 [4]; 1.0 μM) [%] | Proliferation (vs control) Du145 (%) 24 h (DU145 [4]; 2.5 μM) [%] | other results
COC(=O)C1=C[C@H](C)C[C@H]2C[C@H](Cc3ccccc3)[C@@H]3O[C@]123 (stereo in doubt) [Example 10, methyl 2-benzyl-5-methyl-1a,2,3,3a,4,5-hexahydroindeno[1,7a-b]oxirene-7-carboxylate] | 2980 | 86.82 | 88.02 | 98.85 | 92.54 | 66.76 | 28.27 | 81.18 | 74.81 | 92.69 | 80.02 | 76.05 | 23.18 | – | – | – | – | – | – | – | –
COC(=O)C1=C[C@H](C)C[C@H]2C[C@@H](Cc3ccccc3)[C@@H]3O[C@]123 (stereo in doubt) [Example 9, methyl 2-benzyl-5-methyl-1a,2,3,3a,4,5-hexahydroindeno[1,7a-b]oxirene-7-carboxylate] | 2010 | 96.36 | 93.96 | 88.29 | 85.24 | 75.01 | 55.43 | 92.78 | 104.12 | 90.02 | 108.49 | 96.73 | 96.48 | – | – | – | – | – | – | – | –
C[C@H]1C=C2C(=O)O[C@@H]3CC[C@H](C1(C)C)[C@]23O (stereo in doubt) [Example 5, 5,5a,6,7,7a,7b-hexahydro-7b-hydroxy-4,5,5-trimethyl-indeno[1,7-bc]furan-2(4H)-one] | – | – | – | – | – | – | – | – | – | – | – | – | – | 28.13 | 13.26 | 105.62 | 98.92 | 101.40 | 93.59 | 72.14 | Proliferation (vs control) Du145 (%) 48 h (DU145 [4]; 2.5 μM): 53.09%; Proliferation (vs control) Du145 (%) 24 h (DU145 [4]; 5.0 μM): 54.75%; Proliferation (vs control) Du145 (%) 48 h (DU145 [4]; 5.0 μM): 35.53%; Proliferation (vs control) Du145 (%) 24 h (DU145 [4]; 10.0 μM): 39.62%; Proliferation (vs control) Du145 (%) 48 h (DU145 [4]; 10.0 μM): 29.96%; Proliferation (vs control) Du145 (%) 24 h (DU145 [4]; 50.0 μM): 14.36%; Proliferation (vs control) Du145 (%) 48 h (DU145 [4]; 50.0 μM): 8.51%
C[C@H]1C=C2C(=O)O[C@@H]3C[C@@H](c4ccccc4)[C@H](C1)[C@]23O (stereo in doubt) [Example 4, 5,5a,6,7,7a,7b-hexahydro-7b-hydroxy-4-methyl-6-phenyl-indeno[1,7-bc]furan-2(4H)-one] | – | – | – | – | – | – | – | – | – | – | – | – | – | 22.17 | 21.83 | 125.24 | 161.90 | 76.74 | 106.97 | 86.48 | Proliferation (vs control) Du145 (%) 48 h (DU145 [4]; 2.5 μM): 106.23%; Proliferation (vs control) Du145 (%) 24 h (DU145 [4]; 5.0 μM): 91.39%; Proliferation (vs control) Du145 (%) 48 h (DU145 [4]; 5.0 μM): 73.13%; Proliferation (vs control) Du145 (%) 24 h (DU145 [4]; 10.0 μM): 45.29%; Proliferation (vs control) Du145 (%) 48 h (DU145 [4]; 10.0 μM): 59.35%; Proliferation (vs control) Du145 (%) 24 h (DU145 [4]; 50.0 μM): 18.31%; Proliferation (vs control) Du145 (%) 48 h (DU145 [4]; 50.0 μM): 11.34%
O=C1O[C@@H]2[C@H](Cc3ccccc3)C[C@@H]3CCC=C1[C@@]32O (stereo in doubt) [Example 6, 5,5a,6,7,7a,7b-hexahydro-7b-hydroxy-7-benzyl-indeno[1,7-bc]furan-2(4H)-one] | – | – | – | – | – | – | – | – | – | – | – | – | – | 45.01 | 23.80 | 110.14 | 121.11 | 98.76 | 120.77 | 104.13 | Proliferation (vs control) Du145 (%) 48 h (DU145 [4]; 2.5 μM): 101.61%; Proliferation (vs control) Du145 (%) 24 h (DU145 [4]; 5.0 μM): 81.25%; Proliferation (vs control) Du145 (%) 48 h (DU145 [4]; 5.0 μM): 78.86%; Proliferation (vs control) Du145 (%) 24 h (DU145 [4]; 10.0 μM): 43.88%; Proliferation (vs control) Du145 (%) 48 h (DU145 [4]; 10.0 μM): 42.70%; Proliferation (vs control) Du145 (%) 24 h (DU145 [4]; 50.0 μM): 23.59%; Proliferation (vs control) Du145 (%) 48 h (DU145 [4]; 50.0 μM): 9.88%
COC(=O)C1=C[C@H](C)C[C@H]2C[C@@H](c3ccccc3)[C@@H]3O[C@]123 (stereo in doubt) [Example 8, methyl 5-methyl-2-phenyl-1a,2,3,3a,4,5-hexahydroindeno[1,7a-b]oxirene-7-carboxylate] | 750 | 80.94 | 63.59 | 58.19 | 27.29 | 48.49 | 19.98 | 69.23 | 48.79 | 58.97 | 20.28 | 52.67 | 18.81 | – | – | – | – | – | – | – | –
COC(=O)C1=C[C@H](C)C[C@H]2C[C@H](c3ccccc3)[C@@H]3O[C@]123 (stereo in doubt) [Example 7, methyl 5-methyl-2-phenyl-1a,2,3,3a,4,5-hexahydroindeno[1,7a-b]oxirene-7-carboxylate] | 1830 | 90.64 | 95.09 | 68.55 | 75.05 | 63.86 | 76.58 | 81.79 | 82.60 | 81.21 | 85.26 | 70.45 | 71.27 | – | – | – | – | – | – | – | –
COC(=O)C1=C[C@H](C)C[C@H]2CC(C)(C)[C@@H]3O[C@]123 (stereo in doubt) [Example 11, methyl 2,2,5-trimethyl-1a,2,3,3a,4,5-hexahydroindeno[1,7a-b]oxirene-7-carboxylate] | 2490 | 93.88 | 85.06 | 80.42 | 67.77 | 72.14 | 45.51 | 93.47 | 78.36 | 89.35 | 71.85 | 79.82 | 31.62 | – | – | – | – | – | – | – | –

— patent publication US9150531B2, “Tricyclic lactones for treatment of cancer” (Glactone Pharma Development AB, priority 2010, dated 2015)
